One may read the TGI as the concentration giving total growth inhibition. Read a low TGI as more potent growth arrest.

Some test systems named below: 786-0 renal; A498 renal; BT-549 breast; DU-145 prostate; HCC-2998 colon; HS 578T breast; IGROV1 ovarian; KM12 colon; NCI-H226 lung; NCI-H23 lung; OVCAR-5 ovarian; RPMI-8226 leukemia; SF-268 CNS; T-47D breast.
Experiment in all cases: DTP human tumour cell line panel, 48 h

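Protocol summary: plate cells (96-well), add compound at 5 concentrations, incubate 48 h, interpolate endpoints linearly. Definition used: TGI = concentration required for complete inhibition of growth.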

Turning to `Nc1c(O)c2c(c(O)c1Cl)C(=O)C=CC2=O`, the TGI with 786-0 renal was found to be 25.5 µM; in the assay with A498 renal it was 27.3 µM; with BT-549 breast, 3.38 µM; with DU-145 prostate, 5.3 µM; in the assay on HCC-2998 colon it was 11.9 µM; with HS 578T breast, 37.1 µM. For the same molecule, the TGI with IGROV1 ovarian is 14 µM; in the assay with KM12 colon, 13.3 µM; with NCI-H226 lung, 34.3 µM; in the assay with NCI-H23 lung it was 4.89 µM; in the assay on OVCAR-5 ovarian it was 11.4 µM; with RPMI-8226 leukemia it was 44.8 µM. For the same molecule, the TGI in the assay on SF-268 CNS stood at 26.3 µM; in the assay on T-47D breast it was 21.5 µM.
In the case of `CN(O)C(=O)c1ccc(OCc2cccc(Cl)c2)cc1`, the TGI was 53.1 µM in the assay on 786-0 renal; over 100 µM in the assay on A498 renal; over 100 µM in the assay with BT-549 breast; 98.2 µM with DU-145 prostate; over 53.3 µM in the assay with HCC-2998 colon; over 100 µM in the assay on HS 578T breast. Besides, the TGI in the assay with IGROV1 ovarian, in the assay with KM12 colon, with NCI-H226 lung, with NCI-H23 lung, in the assay on OVCAR-5 ovarian and with RPMI-8226 leukemia was over 100 µM in each case. In addition, the TGI was over 100 µM with SF-268 CNS and 98.6 µM with T-47D breast.
For the molecule `COc1ccc(-c2c(C#N)c(N)n(C3OCC(O)C(O)C3O)c(=S)c2C#N)cc1` (stereo not given), the TGI in the assay on 786-0 renal, with A498 renal, in the assay on BT-549 breast, with DU-145 prostate, in the assay on HCC-2998 colon and with HS 578T breast was over 100 µM each time. The TGI in the assay with IGROV1 ovarian, in the assay on KM12 colon, in the assay with NCI-H226 lung, with NCI-H23 lung, with OVCAR-5 ovarian and with RPMI-8226 leukemia was over 100 µM throughout. Moreover, the TGI in the assay on SF-268 CNS and in the assay on T-47D breast was over 100 µM in each case.
Take `CCOC(=O)NC(Nc1cccc(F)c1)(C(F)(F)F)C(F)(F)F`: the TGI in the assay on 786-0 renal, with A498 renal, in the assay on BT-549 breast, in the assay on DU-145 prostate, in the assay with HCC-2998 colon and in the assay with HS 578T breast was over 100 µM throughout. Also, the TGI in the assay on IGROV1 ovarian, with KM12 colon, in the assay on NCI-H226 lung, in the assay with NCI-H23 lung, with OVCAR-5 ovarian and with RPMI-8226 leukemia was over 100 µM each time. The TGI in the assay with SF-268 CNS and in the assay on T-47D breast was over 100 µM each time.
Take `COc1ccc(/C=C/C(=N/NC(=O)N/N=C(/C=C/c2ccc(OC)cc2)C(C)C)C(C)C)cc1`: the TGI in the assay on 786-0 renal, in the assay with A498 renal, in the assay with BT-549 breast, in the assay with DU-145 prostate, in the assay with HCC-2998 colon and in the assay on HS 578T breast was over 100 µM throughout. In addition, the TGI in the assay on IGROV1 ovarian, with KM12 colon, in the assay with NCI-H226 lung, with NCI-H23 lung, with OVCAR-5 ovarian and with RPMI-8226 leukemia was over 100 µM in each case. Also, the TGI with SF-268 CNS and in the assay on T-47D breast was over 100 µM in each case.
`Cc1cccc(/C=N/NC(=S)NC2CCCCC2)n1`: the TGI is 98.3 µM in the assay on 786-0 renal; over 71.4 µM with A498 renal; over 100 µM in the assay on BT-549 breast; over 100 µM in the assay with DU-145 prostate; over 89.5 µM in the assay with HCC-2998 colon; over 100 µM in the assay with HS 578T breast. Further, the TGI in the assay with IGROV1 ovarian was over 100 µM; in the assay with KM12 colon, over 100 µM; in the assay on NCI-H226 lung, over 74.8 µM; in the assay with NCI-H23 lung it was over 100 µM; with OVCAR-5 ovarian it was over 100 µM; in the assay with RPMI-8226 leukemia, 45.4 µM. The TGI is over 100 µM with SF-268 CNS and over 86.3 µM with T-47D breast.
Consider `[N-]=[N+]=NC1(c2ccccc2)C(=O)c2cccc3c4ccccc4n(c23)C1=O` (stereo not given), for which the TGI in the assay with 786-0 renal, in the assay with A498 renal, with BT-549 breast, in the assay on DU-145 prostate, with HCC-2998 colon and in the assay on HS 578T breast was over 100 µM throughout. Besides, the TGI in the assay with IGROV1 ovarian, in the assay with KM12 colon, in the assay on NCI-H226 lung, in the assay with NCI-H23 lung, with OVCAR-5 ovarian and with RPMI-8226 leukemia was over 100 µM throughout. Further, the TGI in the assay with SF-268 CNS and with T-47D breast was over 100 µM throughout.
Regarding `O=C(c1c(F)c(F)c(F)c(F)c1F)n1c(=O)[nH]c2ccccc21`, the TGI worked out at 47.4 µM in the assay with 786-0 renal; 33.6 µM with A498 renal; 37.5 µM with BT-549 breast; 29.6 µM with DU-145 prostate; 11.6 µM in the assay on HCC-2998 colon; 38.8 µM with HS 578T breast. The TGI was 24.2 µM with IGROV1 ovarian; 5.15 µM in the assay with KM12 colon; 33.4 µM with NCI-H226 lung; 11.4 µM in the assay with NCI-H23 lung; 29.7 µM with OVCAR-5 ovarian; 25.1 µM in the assay on RPMI-8226 leukemia. Moreover, the TGI in the assay on SF-268 CNS came out at 34.1 µM; with T-47D breast, 17.6 µM.
Take `COc1ccc2c(c1)nc1n2C(c2c(F)cccc2F)SC1` (stereo not given): the TGI with 786-0 renal, in the assay on A498 renal, with BT-549 breast, in the assay on DU-145 prostate, with HCC-2998 colon and in the assay on HS 578T breast was over 100 µM in each case. Besides, the TGI in the assay on IGROV1 ovarian, with KM12 colon, with NCI-H226 lung, in the assay on NCI-H23 lung, with OVCAR-5 ovarian and in the assay with RPMI-8226 leukemia was over 100 µM throughout. The TGI in the assay with SF-268 CNS and in the assay on T-47D breast was over 100 µM in each case.
As to `Cc1cccc2c1CC(C1OC(=O)c3c(C)cccc31)C2=O` (stereo not given), the TGI in the assay with 786-0 renal, with A498 renal, in the assay on BT-549 breast, in the assay on DU-145 prostate, in the assay with HCC-2998 colon and with HS 578T breast was over 100 µM in each case. For the same molecule, the TGI in the assay on IGROV1 ovarian, in the assay on KM12 colon, in the assay with NCI-H226 lung, in the assay with NCI-H23 lung, with OVCAR-5 ovarian and in the assay on RPMI-8226 leukemia was over 100 µM each time. For the same molecule, the TGI in the assay on SF-268 CNS and in the assay on T-47D breast was over 100 µM throughout.

(Values after PubChem BioAssay (NCI).)
